One assay relates to Rat white adipocytes. The assay is described as follows: Inhibition of the differentiation of adipocytes (Oil Red O). The class given is cell-based. As to conditions: 100 nM test compound, 5 days, Oil Red O ABS550, control = 100%, blank = 0%, Table 3; for activity at 0.1 µM: Rattus norvegicus, Adipocyte, 120 h, read-out: Rate of Differentiation (%). The protocol: Rat white adipocytes contained in the white adipocyte culture kit purchased from HOKUDO were used. As the medium for proliferation and for differentiation-inducing, the medium contained in the white adipocyte culture kit purchased from HOKUDO was used. The cells in the present experiment were cultured in a CO2 incubator (37° C., 95% R.H., 5% CO2).
Immediately after arrival of the purchased cells, all medium for transportation was discarded and replaced with 5 ml of proliferation medium (/25 cm^2-flask) and the cells were cultured for one day. Then, a cell suspension was prepared with proliferation medium so as to be 83,000 cells/mL, and the cell suspension was plated into a type I 96-well collagen-coated microplate (SUMITOMO BAKELITE CO., ltd.) so as to be 5,000 cells/well (60 μL/well).
On the next day, all the proliferation medium was discarded and replaced with 147 μL/well of differentiation-inducing medium. Further, 1) in the group treated with the test compound, 3 μL/well of the solution, in which a test compound (100 μM) was dissolved in DMSO solution and diluted with differentiation-inducing medium by 20 times (final concentration of the test compound: 100 nM, final concentration of DMSO solution: 0.1% (v/v)), were added to the well where the cells were plated. 2) In the control group, 3 μL/well of DMSO solution that was diluted with differentiation-inducing medium by 20 times (final concentration of DMSO: 0.1% (v/v)) were added to the well where the cells were plated. Further, 3) in the blank group, 3 μL/well of DMSO solution that was diluted with differentiation-inducing medium by 20 times (final concentration: 0.1% (v/v)), was added to the blank well.
After culturing for 5 days, all differentiation-inducing medium was discarded and replaced with 60 μL of 10% (v/v) formaldehyde solution (for fixation) in each well and the cells were kept stationary for 20 min at room temperature. After this, the fixative solution was discarded and replaced with 60 μL of 0.2% (v/v) Triton X (Sigma-Aldrich Japan K. K.) solution in each well and kept stationary for 5 min at room temperature. Then all Triton X solution was discarded and replaced with 60 μL of 60% (v/v) isopropanol solution containing dissolved Oil Red O (Sigma-Aldrich Japan K. K.) so as to be 0.3%, which was adipose tissue staining solution, and the well was left stationary for 10 min at room temperature. After the adipose tissue staining solution was discarded, the well was washed twice with 60 JIL of 60% isopropanol solution. Then, 100 μL of the DMSO solution were added to each well and stirred for 5 min at room temperature, The absorbance was measured at 550 nm (ABS550) with a multi-plate reader (LabSystems), and the stained amount with Oil Red O was determined. The measured level at ABS550 in the control group was defined as 100%, while the level at ABS550 in the blank group was defined as 0%. The differentiation rate (%) of the adipocytes treated with the test compound was calculated.

In assay [1] the test system is Mouse preadipocyte strain 3T3-L1. The assay is described as follows: Inhibition of differentiation as an indication of acetic acid uptake. The class given is cell-based. As to conditions: Mus musculus, 3T3-L1, 0.1 μM test substance, control (0.01% dimethylsulfoxide) = 100%, read-out: Rate of Uptake (%) of [2-14C] acetic acid. As for the experimental part:
As the basal medium, Dulbecco's modified Eagle's (DEM) medium (NISSUI PHARMACEUTICAL CO., LTD) was used. […] All culturing in the present Test Example was carried out in a CO2 incubator at 37° C. and 10% CO2 concentration.
The successively cultured 3T3-L1 cells were inoculated in a Biocoat Collagen I 96-well white/clear plate (Becton Dickinson and Co.) at a concentration of 4,900 cells/well, and were cultured in the basal medium containing added 10% (v/v) inactivated bovine fetal serum (FBS) for 10 days.
The medium was replaced with a differentiation-inducing medium in which inactivated FBS (final concentration: 5%), insulin (Sigma-Aldrich Japan K. K., final concentration: 10 μg/mL), isobutyl methyl xanthine (Aldrich K. K., final concentration: 0.5 mM) and dexamethazone (final concentration: 1 μM) were added so as to be at the final concentrations indicated in the parentheses. The cells were divided in the following 2 groups and were cultured for 4 days; 1) in the presence of 0.01% (v/v) dimethylsulfoxide, and 2) in the presence of 0.01% (v/v) dimethylsulfoxide in which was dissolved 1 mM of the test substance (final concentration of 0.1 μM). Then, the medium was further replaced with a maintenance medium in which inactivated […] and insulin were added to the base medium so as to be at final concentrations of 5% and 100 ng/mL, respectively, and the cells were cultured for 2 days.
The inhibitory activity of the test compound against cell differentiation was assayed by using uptake of [2-^14C] acetic acid into the cultured cells as an indicator. […] Then the cells were further incubated with the newly prepared medium for 1 hr. After washing the well with PBS (−), the cells were dried. To these wells, 100 μL/well of a scintillation cocktail (Hewlett-Packard Co., MICROSCINT-20 PACKARD) were added and their radioactivities were determined with a Packard TopCont microplate Scintillation Counter (Hewlett-Packard Co., PACKARD) and the uptake level of [2-^14C] acetic acid into the cultured cell was calculated.
On the basis of the calculated uptake level of [2-^14C] acetic acid into the cultured cells, the relative uptake level of [2-^14C] acetic acid in the group treated with the test compound was calculated against the uptake level of [2-^14C] acetic acid in the presence of 0.01% (v/v) dimethylsulfoxide solution described in 1) (100%).
Value=Uptake Level (cpm) of [2-^14C] Acetic Acid in the Presence of the Test Substance
Control=Uptake Level (cpm) of [2-^14C] Acetic Acid in the Control Group (0.01% dimethylsulfoxide)
Uptake Rate (%) of [2-^14C] Acetic Acid=100×[Value]/[Control]

The test system of another assay is leptin production. Briefly: Enhancing activity for leptin production in adipocytes (ELISA). The class given is cell-based, rat. As to conditions: Rattus norvegicus, Adipocyte, 24 h, leptin concentration as % of control group, read-out: Facilitating activity to produce leptin; for activity at 0.1 µM: 100 nm. The protocol: Hanks solution was used for collection of adipose tissue. The Hanks solution was prepared by filtration of a mixed solution (pH: 7.5) of 120 mM NaCl, 4.8 mM KCl, 0.74 mM MgSO4, 0.30 mM Na2HPO4, 0.40 mM KH2PO4, 20 mM HEPES, 0.05% (w/v) glucose, 2% (w/v) BSA (Sigma-Aldrich Japan K. K., Cat. No. A7888), 0.95 mM CaCl2, 4.17 mM NaHCO3 and 1% (v/v) penicillin-streptomycin liquid (GIBCO BRL, Cat. No. 15140-122). The adipocytes were cultured in Dulbecco's modified Eagle's medium (GIBCO BRL, Cat. No. 11995-040) mixed with DMEM/F-12 (GIBCO BRL, Cat. No. 11320-033) at a ratio of 1:1, and added 0.2% (v/v) Hanks solution, 0.2 μg/L sodium selenite (GIBCO BRL, Cat. No. 13012-018), 0.002% (v/v) ethanolamine, 25 mM HEPES and 1% (v/v) penicillin-streptomycin liquid (GIBCO BRL, Cat. No. 15140-122). As many as possible of the other reagents used were special grade. In this experiment, the cells were cultured in a CO2 incubator (37° C., 95% humidity, 5% CO2).
Male Wistar Imamichi rats of 6 weeks old were sacrificed by bleeding following decapitation, and adipose tissue was removed from the epididymis and sectioned after the vessels were removed in warmed Hanks solution at 37° C. and were weighed. One (1) mL of Hanks solution containing 10 mg collagenase (Wako Pure Chemical Industries, Ltd., 034-10533) was added to the adipose tissue prepared. The solution was transferred into a tube having a volume of 50 mL, and the cells were evenly dispersed by incubation under gentle shaking at 37° C., 90 rpm, for 50 min. Then 20 mL of Hanks solution were added and filtrated through Nylon-mesh with a mesh diameter of 200 μm for removal of undigested tissue pieces. The floating adipocytes were separated from sediments and substances located in the lower layer by centrifugation at 1,000 rpm for 1 min at room temperature. The sediment and 22 mL of the low layer were pulled out with a probe, and the floating adipocytes were recovered. This procedure was repeated twice with Hanks solution and for 4 times with the culture medium. After these procedures the adipocytes were suspended in the culture medium at a volume of 60 mL per 1 g of the adipose tissue weighed previously. 100 μL of the suspended solution were plated in each well of a 96-well microplate (ASAHI TECHNO GLASS Corp.) In the group treated with the test compound, 1 μL/well of DMSO solution containing the dissolved the test compound at concentrations of 200 μM, 20 μM, 2 μM and 0.2 μM (final concentrations of the test compound: 1 μM, 100 nM, 10 nM and 1 nM, respectively) was plated in each of the well. In the control group, 1 μL/well of DMSO (final concentration: 0.1% (v/v)) was plated in each well. The plate was placed stationary in a CO2 incubator for 1 hr or longer, and the contents in the solution were equilibrated at 37° C. After they were equilibrated, the solution in each well was stirred with a magnetic stirrer in a water bath and the suspended solution maintained at 37° C. was plated into each well of the plate at 100 μL/well. After incubation of the cells for 24 hr, the suspended solution of cells was filtrated through a filter for the microplate, MultiScreen (MILLOPORE, MDV-N65). The concentration of leptin in the filtrated solution was determined with ELISA methods by using a Rat Leptin Determination Kit-IBL (Immuno-Biological Laboratories Co., Ltd., Cat. No. 17195). The facilitating activity of the compound to produce leptin was calculated from the following equation based on the concentration of leptin determined.
Facilitating Activity of the Compound to Produce Leptin (%)=(A/B)×100
A: Concentration of Leptin in the Treated Group with the Test Compound.
B: Concentration of Leptin in the Control Group.

Where a name gives a salt, the structure may show the parent alone.

For `CCOC(=O)NC(=S)NCCc1ccc(NC(=O)c2cc([N+](=O)[O-])ccc2Cl)cc1` [Example 272, N-[4-(2-Ethoxycarbonylaminothiocarbonylaminoethyl)phenyl]-(2-chloro-5-nitrophenyl)carboxamide], the activity at 0.1 µM in the assay with Rat white adipocytes worked out at 41.7%.

Consider `O=C(Nc1ccc(C(O)(C(F)(F)F)C(F)(F)F)cc1)c1cc([N+](=O)[O-])ccc1Cl` [Example 237, N-[4-(2,2,2-Trifluoro-1-hydroxy-1-trifluoromethylethyl)phenyl]-(2-chloro-5-nitrophenyl)carboxamide], for which the activity at 0.1 µM in the assay with Rat white adipocytes was determined as 46.9%.

On to `Nc1ccc(NC(=O)c2cc([N+](=O)[O-])ccc2Cl)cc1` [Example 180, N-(4-Aminophenyl)-(2-chloro-5-nitrophenyl)carboxamide], for which the “Rate of Differentiation (%)” value in the assay with Rat white adipocytes stood at 59.1%.

Consider `CCCCN(C)c1ccc(-c2ccc(NC(=O)c3cc([N+](=O)[O-])ccc3Cl)cc2)cc1` [Example 210, N-[4-[4-(N-Butyl-N-methylamino)phenyl]phenyl]-(2-chloro-5-nitrophenyl)carboxamide], for which the activity at 0.1 µM with Rat white adipocytes amounted to 47.6%.

In the case of `Cc1ccc(NS(=O)(=O)c2ccc(NC(=O)c3cc([N+](=O)[O-])ccc3Cl)cc2)cc1` [Example 144, N-[4-(4-Tolylaminosulfonyl)phenyl]-(2-chloro-5-nitrophenyl)carboxamide], the activity at 0.1 µM in assay [1] is 82.2%.

For the compound `CCCCCCCCCCCCCCc1sc(NC(=O)c2cc([N+](=O)[O-])ccc2Cl)nc1-c1ccccc1` [Example 109, N-(4-Phenyl-5-tetradecylthiazol-2-yl)-(2-chloro-5-nitrophenyl)carboxamide], the activity at 1 µM with leptin production turned out to be 112%. Also, in assay [1], the activity at 0.1 µM was 64.6%.

In the case of `Cc1cccc(C(C)C)c1NC(=O)c1cc([N+](=O)[O-])ccc1Cl` [Example 19, N-(2-Isopropyl-6-methylphenyl)-(2-chloro-5-nitrophenyl)carboxamide], the activity at 0.1 µM in assay [1] is 64.8%.

As for `CCOC(=O)c1c[nH]nc1NC(=O)c1cc([N+](=O)[O-])ccc1Cl` [Example 71, N-(4-Ethoxycarbonylpyrazol-3-yl)-(2-chloro-5-nitrophenyl)carboxamide], the activity at 0.1 µM in assay [1] turned out to be 65.8%.

On to `O=C(O)c1ccc(NC(=O)c2cc([N+](=O)[O-])ccc2Cl)cc1` [Example 27, 4-[(2-Chloro-5-nitrophenyl)carbonylamino]benzoic Acid], for which, in assay [1], the activity at 0.1 µM amounted to 66%.

`CCCCCCCCN(CCCCCCCC)c1ccc(-c2ccc(NC(=O)c3cc([N+](=O)[O-])ccc3Cl)cc2)cc1` [Example 185, N-[4-[4-(N,N-Dioctylamino)phenyl]phenyl]-(2-chloro-5-nitrophenyl)carboxamide Hydrochloride]: in the assay with leptin production, the activity at 1 µM amounted to 123% and the activity at 0.1 µM came out at 132%. In the assay on leptin production (10 nm), the activity at 0.01 µM is 122%.

For `CC(=O)Oc1c(C)c(C)c2c(c1C)C(=O)CC(C)(COc1ccc(NC(=O)c3cc([N+](=O)[O-])ccc3Cl)cc1)O2` (stereo not shown) [Example 91, N-[4-(6-Acetoxy-2,5,7,8-tetramethyl-4-oxochroman-2-ylmethoxy)phenyl]-(2-chloro-5-nitrophenyl)carboxamide], the activity at 1 µM with leptin production was found to be 114%. Further, the activity at 0.1 µM in the assay with leptin production was determined as 110%; in assay [1], 85.8%.

These data come from US20030134859A1 (SANKYO COMPANY, LIMITED, priority 2000, published 2003).
